Columns and labels:
[1] = test system: rat adipocyte; assay: Inhibition of free fatty acid (FFA) release from epinephrine-stimulated rat adipocytes; type: cell-based; details: concentration inhibiting release of the fatty acid by 50 %, relative values with IC50 of VOSO4 regarded as 1.00 mM, 10^-5 M epinephrine, 3 hours at 37°C, glycine complex in aqueous solution, others in physiological saline
Experimental: A pharmacological test was conducted as described below in accordance with the method reported in Biol.Pharm.Bull., 18, 719-725 (1995).
A male Wistar rat weighing 200 g was exsanguinated under an anesthesia with ether, and a fat cell mass was isolated from a fat tissue around an epididymis according to the method of Road Bell (J. Biol. Chem. , 239, 375(1964)). The fat cell mass was cut into pieces using scissors, and digested for 1 hour at 37°C in a KRB buffer solution (5 mM Glucose, 120 mM NaCl, 1.27 mM CaCl2, 1.2 mM MgSO4, 4.75 mM KCl, 1.2 mM KH2PO4 and 24 […]; pH=7.4) supplemented with 20 mg of bovine serum albumin (BSA) and 2 mg of collagenase per ml. The fat cells were sieved through a nylon mesh (250 µm) whereby being made free from any undigested tissue, washed three times with the buffer similar to that described above except for containing no collagenase, and adjusted at 2.5 x 10^6 cells/ml.
Then the reaction mixture was combined with 10^-5 M epinephrine and the resultant solution was incubated for 3 hours at 37°C. The reaction was quenched by cooling with ice, and the mixture was centrifuged for 10 minutes at 3000 rpm. The extracellular solution was examined for its free fatty acid (FFA) level using an NEFA kit whereby calculating an IC50 value.

[2] = test system: KK-A^y mice; assay: Body weight change in KK-A^y mice under daily intraperitoneal treatment (index of side effects); type: in vivo; details: intraperitoneally once a day, 4.5 or 2.5 mg Zn/kg depending on blood glucose, 13 to 15 days (Figures 9 to 11)
Experimental: (§1) In the control group, 0.5 ml of the acacia solution was given.

[3] = test system: KK-A^y mice; assay: Glucose tolerance test in KK-A^y mice after 15 days of treatment; type: in vivo; details: KK-A^y mice fasted for 13 hours, glucose orally at 1 g/kg; compared with control mice (Figure 12)
Experimental: 8-Week old KK-A^y mice were treated intraperitoneally once a day with a 5 % acacia solution in a control group (n=6) or with Zn(PA)2 (n=6), Zn(maltol)2 (n=7) or Zn(Cys-OMe)2 (n=6) dissolved in a 5 % acacia solution in the complex treatment groups.
as §1
(glucose tolerance test: A mouse was fasted for 13 hours and then administered orally with glucose at 1 g/kg, and then the blood glucose levels were determined at certain time intervals.)

[4] = test system: KK-A^y mice; assay: Glucose tolerance test in KK-A^y mice after 3 days of treatment; type: in vivo; details: 4 mg/kg once a day for 3 days, then fasted for 14 hours, compared with mice not receiving the complex (Figure 3)
Experimental: Subsequently, KK-A^y mice as type II diabetes model animals and humans were subjected to the glucose tolerance tests to obtain blood glucose curves, which are shown in Figure 3 and Figure 4.
In Figure 3, (a) denotes a blood glucose curve obtained in a glucose tolerance test in mice each of which received 4 mg/kg of Zn(PA)2(H2O)2 as an inventive zinc (II) complex once a day for 3 days and then fasted for 14 hours, and (b) denotes one in a control group in which the mice were not treated with the complex. In Figure 4, (a) denotes a blood glucose curve obtained in a glucose tolerance test in diabetes patients, while (b) denotes one in normal healthy volunteers.

[5] = Glucose +, 6-methyl-picolinic acid and pyridine-2-acetic acid complexes in DMSO

O=C(O)c1cccc(Br)n1 [Zn(6BPA)2]
IC50 ([1]; Glucose -): 0.45 mM

bis(pyrrolidine-N-dithiocarbamate) zinc (II) complex [Zn(PCD)2]
IC50 ([1]; Glucose -): 0.049 mM

trans-bis(glycine) zinc (II) complex [Zn(Gly)2/1.0H2O]
IC50 [1, 5]: 0.63 mM | IC50 ([1]; Glucose -): 0.84 mM

bis(2-mercaptopyridine-N-oxide) zinc (II) complex [Zn(MPNO)2/0.3H2O]
IC50 [1, 5]: 0.011 mM | IC50 ([1]; Glucose -): 0.013 mM

NC(=O)CC[C@H](N)C(=O)O [Zn(Gln)2]
IC50 [1, 5]: 0.84 mM

COC(=O)C(N)C[S-].COC(=O)C(N)C[S-].[Zn+2] [Zn(Cys-OMe)2, bis(L-cysteine methyl ester) zinc (II) complex]
body weight change (weight loss as an index of side effects) [2]: no increase or decrease in the body weight was observed

cis-bis(threonine) zinc (II) complex [cis-[Zn(Thr)2(H2O)2]]
IC50 ([1]; Glucose -): 1.3 mM

bis(3-hydroxy-2-methyl-4-pyronate) zinc (II) complex [Zn(maltol)2/2.6H2O]
IC50 [1, 5]: 0.57 mM | glucose tolerance test after the administration of each complex for 15 days [3]: an amelioration of the diabetes conditions when compared with the diabetes mice (control mice) | body weight change (weight loss as an index of side effects) [2]: immediately after the treatment with the complex, the body weight was recovered in response to the reduction in the blood glucose and the reduction in the dose

Cc1cccnc1C(=O)O [Zn(3MPA)2]
IC50 ([1]; Glucose -): 0.42 mM

O=C(O)C1CSCN1 [Zn(L-4Tia)2]
IC50 ([1]; Glucose -): 1.2 mM

O=c1cc(CO)occ1O [Zn(Koj)2]
IC50 ([1]; Glucose -): 0.91 mM

O=C([O-])c1cccnc1.O=C([O-])c1cccnc1.[Zn+2] [Zn(Nic)2/4H2O]
IC50 [1, 5]: 0.82 mM

O=S(=O)([O-])[O-].[O]=[V+2] [VOSO4/5.4 or 2.3H2O, Oxovanadium sulfate, reference compound]
IC50 [1, 5]: 1 mM | IC50 ([1]; Glucose -): 1 mM

O.O.O=C([O-])c1ccccn1.O=C([O-])c1ccccn1.[Zn+2] [trans-[Zn(PA)2H2O)2], trans-bis(picolinate) zinc (II) complex]
blood glucose curve in glucose tolerance test [4]: a reduced peak level of the blood glucose followed by a rapid decrease, as compared with the mice not receiving the complex and then recovered its almost normal blood glucose level after 180 minutes | glucose tolerance test after the administration of each complex for 15 days [3]: an amelioration of the diabetes conditions when compared with the diabetes mice (control mice) | body weight change (weight loss as an index of side effects) [2]: not observed in most of the animals

O=C(O)C1CSCN1 [Zn(D-4Tia)2]
IC50 ([1]; Glucose -): 1.28 mM

Cc1cccc(C(=O)[O][Zn][O]C(=O)c2cccc(C)n2)n1 [Zn(6MPA)2(H2O), bis(6-methyl-picolinate)zinc(II)complex]
IC50 [1, 5]: 0.39 mM

From patent publication EP1674096A2, “Hypoglycemics comprising organic zinc (II) complexes” (Japan Science and Technology Agency, priority 1999, dated 2001)
